# Assay results: patent publication US11965894B2, “Method of diagnosis of drug induced liver injury” (BIOPREDICTIVE, priority 2017, dated 2024)
# Columns and labels:
# [1] = Serum miR-122 by LNA-based relative quantitative PCR in DILI cases; type: in vivo, human
# Experimental: Total RNA, including miRNA was extracted from 200 μl of serum, using a commercial column-based system (Exiqon, Denmark) following the manufacturer's instructions. RNA synthetic control templates (Exiqon, Denmark) were introduced to provide controls for the quality of the RNA isolation. Serum levels of miR-122 and nine endogenous miRNAs as potential candidates for reference miRNAs were assayed using the Locked Nucleic Acid (LNA™)-based miRNA relative quantitative PCR with a SYBR® Green detection. cDNA synthesis and real time PCR were performed using the miRCURY LNA™ Universal RT cDNA Synthesis Kit (Exiqon, Denmark) and miRCURY LNA™ Universal RT microRNA PCR system (Exiqon), respectively. Two additional RNA spike-ins were also introduced to provide controls for the cDNA synthesis reaction and the PCR. Quantitative PCR was done on the LightCycler® 480 (Roche Applied Science) according to the manufacturer's instructions. The amplification curves were analyzed using the Roche LC software, both for the determination of cycle threshold (Ct) and for melting curve analysis. Ct values were then processed using the analysis software GenEx® (MultiD Analysis AB). […] Ct values for miR-122 were normalized with Ct value of miR-23a-3p. Levels of serum miR-122 were expressed in relative quantities calculated by the equation 2^−ΔCt.
# [2] = FibroTest and ActiTest scores in DILI cases; type: in vivo, human; conditions: for FibroTest: single followed DILI case
# Experimental: The Fibrotest® combines five markers: alpha2-macroglobulin, haptoglobin, apolipoprotein A2, total bilirubin and gamma-glutamyl transpeptidase (GGT), and adjusts with sex and age. […] It is performed in vitro on a biological sample (blood or serum) that has been harvested from a patient.
# The ActiTest is calculated using an original combination of six highly concentrated biochemical markers, which are easy to assess. The ActiTest offers a non invasive alternative for measuring necro inflammatory activity in patients with chronic hepatitis C or B. The ActiTest combines alpha2-macroglobulin, haptoglobin, apolipoprotein A1, total bilirubin, GGT, and ALT, parameters adjusted for patient's age and gender.
# [3] = healthy volunteers receiving the drug, ref [13]; cited from earlier work
# [4] = in vivo
# Experimental: Measures of biochemical markers were performed accordingly to the art, and analyses of ActiTest® and FibroTest® were made as described in the art and in WO 2002/016949.
# Comparisons between medians (95% confidence interval [CI]) used the Mann-Whitney test with Bonferroni correction, and the Tukey-Kramer multiple comparison procedure for analyses of variance of the three repeated measures. Correlation between test values was estimated using the Pearson coefficient, expressed with a 95% CI; according to the number of comparisons, only a P value <0.01 was considered significant. NCSS-9 software was used.
# [5] = DILI cases attributed to the drug, at inclusion
smiles,measurement,setting,value
"CC(=O)Nc1ccc(O)cc1 [APAP, acetaminophen]",miR-122 compared with MTX cases,"[1]; DILI cases, at baseline",significantly lower
same,miR-122 (lowest),[1]; single DILI case with severe malnutrition,−0.8
same,ActiTest median,[2]; [5],0.99
same,FibroTest,[2]; at 8-12 weeks,0.53
same,FibroTest,[2]; one month later,0.47
same,ApoA1 regulation in ALT responders compared with ALT non-responders,[3],three-fold down-regulation
CCOC(=O)Nc1ccc(NCc2ccc(F)cc2)nc1N [flupirtine],ApoA1 compared with normal ranges observed with methotrexate and others,[4],dramatic decrease
same,ApoA1 evolution compared with HAPTO,[4],much quicker normalization
same,ApoA1 median,[4],0.27 g/L
same,BILI compared with normal ranges observed with methotrexate and others,[4],dramatic increase
same,BILI median,[4],335 µmol/L
same,HAPTO compared with normal ranges observed with methotrexate and others,[4],dramatic decrease
same,HAPTO median,[4],0.10 g/L
same,FibroTest median,[2]; [5],0.99
CN(Cc1cnc2nc(N)nc(N)c2n1)c1ccc(C(=O)N[C@@H](CCC(=O)O)C(=O)O)cc1 [methotrexate],GGT dynamics compared with other drugs,[4],no decrease
same,miR-122 median,"[1]; serum, DILI cases attributed to the drug, at inclusion, relative quantities normalized with miR-23a-3p",7.54
same,FibroTest,[2]; 877 days later,0.52
same,FibroTest,[2]; at 8-12 weeks,0.51
"CCN1CCN(C(=O)N[C@@H](C(=O)N[C@@H]2C(=O)N3[C@@H]2SC(C)(C)[C@@H]3C(=O)O)c2ccccc2)C(=O)C1=O [piperacillin, piperacillin-tazobactam]",GGT median,[4],678 IU/L
